From patent US20130196050A1, “SALTY TASTE ENHANCER” (AJINOMOTO CO., INC., priority 2010, published 2013)

Target: T1, Human ENaC δ, β and γ subunit (Homo sapiens, UniProt P51168+P51170+P51172)
T1 construct: expressed in transfected cells; host or cells: Xenopus laevis (African clawed frog) oocytes injected with cRNA
T1 sequence (P51172 1-638 isoform P51172-1): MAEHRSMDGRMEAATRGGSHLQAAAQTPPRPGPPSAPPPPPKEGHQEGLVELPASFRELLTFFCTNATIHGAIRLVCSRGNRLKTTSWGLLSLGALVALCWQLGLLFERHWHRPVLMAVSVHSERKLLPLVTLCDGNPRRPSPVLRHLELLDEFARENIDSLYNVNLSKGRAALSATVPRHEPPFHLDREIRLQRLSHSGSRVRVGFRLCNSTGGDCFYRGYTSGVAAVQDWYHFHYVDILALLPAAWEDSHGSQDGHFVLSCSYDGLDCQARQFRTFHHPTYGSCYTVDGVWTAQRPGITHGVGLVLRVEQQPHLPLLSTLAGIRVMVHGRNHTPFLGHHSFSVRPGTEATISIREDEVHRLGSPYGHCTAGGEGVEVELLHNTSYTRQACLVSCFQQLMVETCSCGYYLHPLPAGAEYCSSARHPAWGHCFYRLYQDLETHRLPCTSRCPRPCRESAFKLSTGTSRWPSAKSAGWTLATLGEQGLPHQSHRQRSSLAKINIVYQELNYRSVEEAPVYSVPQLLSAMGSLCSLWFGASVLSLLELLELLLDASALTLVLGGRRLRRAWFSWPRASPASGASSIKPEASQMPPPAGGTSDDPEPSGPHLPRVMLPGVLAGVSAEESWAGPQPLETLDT
T1 sequence (P51168 1-640): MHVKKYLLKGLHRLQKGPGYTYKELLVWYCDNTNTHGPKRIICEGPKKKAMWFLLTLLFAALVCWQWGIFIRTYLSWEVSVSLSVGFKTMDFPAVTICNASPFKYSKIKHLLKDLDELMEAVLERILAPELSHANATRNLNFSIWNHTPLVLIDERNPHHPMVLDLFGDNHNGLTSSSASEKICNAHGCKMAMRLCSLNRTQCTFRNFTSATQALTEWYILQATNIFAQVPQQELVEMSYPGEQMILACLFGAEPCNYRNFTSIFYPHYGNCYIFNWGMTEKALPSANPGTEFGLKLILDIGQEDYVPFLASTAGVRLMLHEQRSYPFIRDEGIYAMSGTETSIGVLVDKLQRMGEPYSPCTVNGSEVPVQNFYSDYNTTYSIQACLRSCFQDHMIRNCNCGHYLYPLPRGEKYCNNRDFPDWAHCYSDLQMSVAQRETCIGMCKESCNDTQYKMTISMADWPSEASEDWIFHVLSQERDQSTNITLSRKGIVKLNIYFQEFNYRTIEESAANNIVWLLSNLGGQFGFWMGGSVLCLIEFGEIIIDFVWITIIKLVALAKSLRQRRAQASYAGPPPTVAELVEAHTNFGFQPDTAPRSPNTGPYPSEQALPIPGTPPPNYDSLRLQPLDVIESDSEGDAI
T1 sequence (P51170 1-649): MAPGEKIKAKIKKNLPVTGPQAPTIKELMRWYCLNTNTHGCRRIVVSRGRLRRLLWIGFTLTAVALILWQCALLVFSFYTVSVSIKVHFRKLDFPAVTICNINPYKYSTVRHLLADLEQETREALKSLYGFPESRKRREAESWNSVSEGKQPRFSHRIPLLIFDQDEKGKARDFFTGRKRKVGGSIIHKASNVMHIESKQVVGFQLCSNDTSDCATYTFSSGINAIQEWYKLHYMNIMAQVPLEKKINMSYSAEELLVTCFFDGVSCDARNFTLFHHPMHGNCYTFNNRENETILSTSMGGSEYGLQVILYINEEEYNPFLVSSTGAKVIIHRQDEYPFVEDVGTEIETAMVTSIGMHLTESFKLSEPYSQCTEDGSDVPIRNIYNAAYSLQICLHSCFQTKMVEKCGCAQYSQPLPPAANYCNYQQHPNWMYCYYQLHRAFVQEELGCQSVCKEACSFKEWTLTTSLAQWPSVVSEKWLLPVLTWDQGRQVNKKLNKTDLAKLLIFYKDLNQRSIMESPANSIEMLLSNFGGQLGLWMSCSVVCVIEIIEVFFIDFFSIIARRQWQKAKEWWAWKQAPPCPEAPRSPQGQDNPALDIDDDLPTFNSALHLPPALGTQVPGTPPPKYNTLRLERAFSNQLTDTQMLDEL
Assay: Measurement of ENaC activation potency (two electrode voltage clamp current in ENaC-expressing oocyte)
Assay type: cell-based
Conditions: lowest concentration increasing the current value by not less than 10% vs before addition
Procedure: ENaC activation current value, namely, the inward current in ENaC-expressing oocyte was measured as follows.
According to the method described in Motonao Nakamura, Takao Shimizu: Experiment of African clawed frog oocyte, Experimental Medicine Vol. 11, No. 3, 224-232 (1993), oocyte was collected from African clawed frog, […], and the current value was measured by a Two Electrode Voltage Clamp technique. In the present invention, ND96 (96 mM NaCl, 2 mM KCl, 1 mM MgCl2, 5 mM Hepes, 1.8 mM CaCl2, pH 7.6) was used instead of MBS buffer in the above-mentioned document. Injector NANOLITER 2000 manufactured by World Precision Instruments was used for microinjection, OpusXpress 6000A manufactured by Molecular Devices was used for current value measurement by a Two Electrode Voltage Clamp technique, and Clampfit 10.2 software manufactured by Molecular Devices was used for data analysis.
Human ENaC δ, β and γ subunit genes shown by SEQ ID NOs: 1, 2 and 3, respectively, in the Sequence Listing were each cloned into a plasmid vector, and used as a template DNA for cRNA synthesis. cRNA was synthesized using MEGAscript kit manufactured by Ambion and according to the method of the manual of the manufacturer.
A mixture of the same amount of ENaC δ subunit cRNA (0.4 to 0.8 μg/μL), and β and γ subunits cRNA (0.4 μg/μL) was injected into the oocyte of African clawed frog at 27.6 nL per oocyte, and the oocyte was cultured for 16 hours to 72 hours. Thereafter, the oocyte was set on a measuring apparatus OpusXpress 6000A, the electrodes were inserted into the oocyte, the voltage was clamped at a level lower by −30 mV than the resting membrane potential by a Two Electrode Voltage Clamp technique, and the current value was measured.
To measure the ENaC activation potency, oocyte was stimulated with each test compound, and the minimum effective dose (hereinafter to be abbreviated as MED) of the compound at the time point when the electric current started to increase was measured. In this case, the minimum effective dose of the stimulation compound that increased the current value by not less than 10%, as compared to the current value before addition of the compound and without stimulation, was taken as MED. A smaller MED means higher ENaC activation potency.
Each test compound was directly dissolved in ND96, or first dissolved in dimethyl sulfoxide (DMSO) to 100 mM, and then prepared by diluting the solution with ND96 to a concentration used for the evaluation. The concentration of the test compound in ND96 was prepared to various concentrations within the range of 0.1 nM to 300 μm.
ND96 as a perfusion fluid was flowed at a rate of 0.5 mL/min through the measuring apparatus OpusXpress 6000A on which ENaC-expressing oocyte was set, the perfusion fluid was temporarily stopped every 3 minutes to add a test compound solution (0.25 mL) dissolved in ND96 at a rate of 0.5 mL/minute. In this way, the test compound was contacted with ENaC-expressing oocyte, and whether ENaC is activated by the compound was examined by measuring the current value. After addition of the test compound, feeding of the perfusion fluid was resumed to wash away the compound to be ready for the next addition of the compound.
The compound was added successively from a low concentration to a high concentration to stimulate ENaC-expressing oocyte. The concentrations actually added was, for example, 1 nM, 3 nM, 10 nM, 30 nM, 100 nM, 300 nM; 1 μM, 3 μM, 10 μm, 30 μm, 100 μm, 300 μm; 1.2 μM, 6 μM, 30 μm, 150 μm of one test compound. The compound was added from low concentrations to high concentrations at 3 minute intervals. The first compound was added from a low concentration to a high concentration, then the second and the third compounds were similarly added successively to the same oocyte, and changes in the current value were measured. The current value was continuously measured from the start to the end of the experiment. […]

| MED value (minimum effective dose) | Compound |
| --- | --- |
| 10 µM | O=C(CCc1ccccc1)N[C@@H](Cc1c[nH]c2ccc(O)cc12)C(=O)O [Example 74] |
| 3 to 10 µM | CC(Cc1ccccc1)(NC(=O)CCc1ccccc1)C(=O)O (stereo not shown) [Example 75] |
| 3 µM | O=C(CCc1ccccc1)NC(Cc1c[nH]c2ccc(F)cc12)C(=O)O (stereo not shown) [Example 76] |
| 1 to 3 µM | Cc1ccc2c(CC(NC(=O)CCc3ccccc3)C(=O)O)c[nH]c2c1 (stereo not shown) [Example 77] |
| 3 µM | CN(C(=O)CCc1ccccc1)[C@@H](Cc1ccccc1)C(=O)O [Example 78] |
| 10 µM | O=C(CCc1ccccc1)NC(C(=O)O)c1ccccc1 (stereo not shown) [Example 79] |
| 3 µM | N[C@@H](Cc1ccccc1)C(=O)Nc1c(O)cccc1O [Example 80] |
| 3 µM | N[C@@H](CCc1ccccc1)C(=O)Nc1c(O)cccc1O [Example 81] |
| 1 µM | O=C(N[C@@H](Cc1ccccc1)C(=O)O)c1c(O)cccc1O [Example 82] |
| 0.3-1^ μM | O=C(N[C@@H](CCc1ccccc1)C(=O)O)c1c(O)cccc1O [Example 83] |
| 0.3 µM | O=C(NCCc1c[nH]c2ccccc12)c1c(O)cccc1O [Example 84] |
| 3 µM | O=C(CCc1c[nH]c2ccccc12)Nc1c(O)cccc1O [Example 87] |
| 10 µM | COc1ccc(CCC(=O)Nc2c(O)cccc2O)cc1O [Example 89] |
| 3 to 10 µM | COC(=O)[C@H](Cc1c[nH]c2ccccc12)NC(=O)c1cc(Br)ccc1O [Example 92] |
| 0.3 µM | O=C(NCCc1c[nH]c2ccc(O)cc12)c1cc(Br)ccc1O [Example 93] |
| 1 µM | O=C(NCCc1c[nH]c2ccccc12)c1cc(Br)ccc1O [Example 95] |
| 1 µM | COC(=O)[C@H](Cc1ccccc1)NC(=O)c1cc(Br)ccc1O [Example 96] |
| 10 µM | COC(=O)[C@H](CCc1ccccc1)NC(=O)c1cc(Br)ccc1O [Example 98] |
| 1 µM | N[C@@H](CCc1ccccc1)C(=O)Nc1ccccc1S(=O)(=O)O [Example 103] |

| MED value (minimum effective dose) | Compound |
| --- | --- |
| 3 µM | O=C(NCCc1c[nH]c2ccc(O)cc12)c1ccc(Br)cc1O [Example 104] |
| 3 µM | COC(=O)[C@H](Cc1c[nH]c2ccccc12)NC(=O)c1ccc(Br)cc1O [Example 106] |
| 3 µM | COC(=O)[C@H](Cc1ccccc1)NC(=O)c1ccc(Br)cc1O [Example 107] |
| 0.1 to 0.3 µM | O=C(N[C@@H](Cc1ccccc1)C(=O)O)c1ccc(Br)cc1O [Example 108] |
| 3 µM | CCOC(=O)[C@H](Cc1ccccc1)NC(=O)c1cc(Br)ccc1O [Example 109] |
| 0.1 to 0.3 µM | O=C(N[C@@H](Cc1c[nH]c2ccccc12)C(=O)O)c1ccc(Br)cc1O [Example 110] |
| 1 µM | COC(=O)[C@H](Cc1c[nH]c2ccccc12)NC(=O)c1c(O)cc(C)cc1O [Example 112] |
| 0.3 µM | Cc1cc(O)c(C(=O)N[C@@H](Cc2c[nH]c3ccccc23)C(=O)O)c(O)c1 [Example 113] |
| 10 µM | CCOC(=O)[C@H](Cc1ccccc1)NC(=O)c1c(O)cc(C)cc1O [Example 114] |
| 0.3 µM | Cc1cc(O)c(C(=O)N[C@@H](Cc2ccccc2)C(=O)O)c(O)c1 [Example 115] |
| 3 to 10 µM | COC(=O)[C@H](CCc1ccccc1)NC(=O)c1c(O)cc(C)cc1O [Example 116] |
| 0.3 µM | Cc1cc(O)c(C(=O)N[C@@H](CCc2ccccc2)C(=O)O)c(O)c1 [Example 117] |
| 10 µM | COC(=O)[C@H](Cc1ccccc1)NC(=O)c1c(O)cc(C)cc1O [Example 118] |
| 0.3 µM | N[C@@H](Cc1c[nH]c2ccccc12)C(=O)Nc1ccccc1S(=O)(=O)O [Example 119] |
| 0.3 µM | COC(=O)[C@H](Cc1c[nH]c2ccccc12)NC(=O)c1c(O)cc(O)cc1O [Example 120] |
| 3 µM | O=C(N[C@@H](Cc1c[nH]c2ccccc12)C(=O)O)c1c(O)cc(O)cc1O [Example 121] |
| 1 µM | COC(=O)[C@H](Cc1ccccc1)NC(=O)c1c(O)cc(O)cc1O [Example 122] |
| 10 µM | O=C(N[C@@H](Cc1ccccc1)C(=O)O)c1c(O)cc(O)cc1O [Example 123] |
